# Test results from patent publication US20240269144A1, “METHODS AND KITS FOR THE DETECTION OF MALIGNANCIES” (H. LEE MOFFITT CANCER CENTER AND RESEARCH INSTITUTE, INC., priority 2021, published 2024).
# Read-outs that look alike come from different tables or passages of the source.
# Assays:
# malignant T cells = experiment: EVOS drug assay (Cytolight Rapid Green / Cytox Red) on malignant T cells; format: cell-based
# Procedure: FIGS. 9A, 9B, 9C, and 9D show the effects various anti-cancer agents on malignant T cells. Cells are stained green with the Cytolight Rapid Green Dye—freely pass thru the membrane, however, once inside the dye is transformed into cell-impermeant probe transferred to daughter cells. Once the cells have been stained the dye is removed. Stains live cells. Then the Cytox Red is added and left in the media. Cytox Red moves inside the cells when the cell membrane is compromised. Assays were read at 0, 6, 12, 18 and 24 hrs. Each timepoint is analyzed separately for the designated concentration of Palbociclib (CDK4/6 inhibitor)(9A), Omacetaxine mepesuccinate (HHT)(9B), CX5461 (rRNA synthesis inhibitor)(9C), or BTZO-1 (MIF inhibitor)(9D).
# To see the effect of various inhibitors on malignant T cells, we an EVOS drug assay (FIG. 9) measuring varying concentrations and time points for Palbociclib (CDK4/6 inhibitor)(FIG. 9A), Omacetaxine mepesuccinate (HHT)(FIG. 9B), CX5461 (rRNA synthesis inhibitor)(FIG. 9C), and BTZO-1 (MIF inhibitor)(FIG. 9D). By 12 hours, killing of malignant T cells was observed reaching a maximum for all drugs by […].
# [1] = system: T-cell lymphoma lines Myla (MF), HH (MF—leukemic phase), Hu78 (SS); experiment: OXPHOS inhibitor apoptosis assay (Annexin V/PI), T-cell lymphoma cell lines; format: cell-based
# [2] = system: acute myeloid leukemia and mantle cell lymphoma tumor cells; conditions: pre-clinical models of acute myeloid leukemia and mantle cell lymphoma; cited from earlier work
# [3] = system: T-cell lymphoma lines Myla (MF), HH (MF—leukemic phase), Hu78 (SS)
# Procedure: MYC inhibitor (MYCi975) cell proliferation assay (right). Indicated cell lines were seeded on 96-well plates and treated with different dose of MYCi975 for 5 days. At day 5, cells were incubated with MTS reagent following manufacture's protocol (Promega Cat #G3580). Absorbance at OD490 nm was recorded and percentage of growth were normalized to vehicle control. Half maximal inhibitory concentration (IC50) was calculated based on curve fitting result using non-linear regression function of GraphPad Prism 8. The symbol represents the mean. The error bars represent the mean±s.e.m. n=12 (MyLa and Jurkat); n=8 (HH, MJ, Hu78).
# To determine the sensitivity of CTCL and other T cell lymphomas to OXPHOS and MYC inhibition, we performed pharmacologic perturbation assays using IACS10759 and MYCi975 in MF and other TCL cell lines (FIG. 4F).
# Established T-cell lymphoma lines were used for drug assays, including Myla (MF; Sigma Aldrich Cat #95051032), HH (MF—leukemic phase; ATCC Cat #CRL-2105), and Hu78 (SS; ATCC Cat #TIB-161), Jurkat (ATLL) and MJ (ATLL; ATCC Cat #8294).
# MYC = MYC (Homo sapiens, UniProt P01106); conditions: cited from earlier work
# CTCL = conditions: MAVORIC trial, cited from earlier work
# [4] = malignant T cells, at maximum killing
# [5] = in vitro pharmacologic studies, CTCL cell lines
# Sequence of MYC (P01106 whole entry, species assumed): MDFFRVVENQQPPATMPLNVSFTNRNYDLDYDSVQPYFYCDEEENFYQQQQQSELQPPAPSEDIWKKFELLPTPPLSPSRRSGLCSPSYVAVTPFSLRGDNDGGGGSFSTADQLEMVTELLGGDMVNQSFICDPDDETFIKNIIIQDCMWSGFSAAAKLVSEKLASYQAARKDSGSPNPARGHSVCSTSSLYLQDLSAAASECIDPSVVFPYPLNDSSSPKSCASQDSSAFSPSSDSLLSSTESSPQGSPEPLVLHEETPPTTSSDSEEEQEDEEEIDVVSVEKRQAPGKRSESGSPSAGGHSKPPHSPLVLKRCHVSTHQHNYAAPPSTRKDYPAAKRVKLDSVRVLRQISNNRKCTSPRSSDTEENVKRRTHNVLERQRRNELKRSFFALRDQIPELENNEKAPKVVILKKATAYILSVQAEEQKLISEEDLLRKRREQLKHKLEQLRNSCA
molecule,measurement,setting,value
O=c1nc(-c2ccccn2)sc2ccccc12 [BTZO-1],target cells remaining viable after treatment,malignant T cells,50%
"COC(=O)C[C@](O)(CCCC(C)(C)O)C(=O)O[C@@H]1C(OC)=C[C@]23CCCN2CCc2cc4c(cc2[C@H]13)OCO4 [HHT, Omacetaxine mepesuccinate]",target cells remaining viable after treatment,malignant T cells; [4],50%
Cc1nc(-c2nc(-c3ccc(OC(F)(F)F)cc3)no2)nn1Cc1cccc(N2CCC(S(C)(=O)=O)CC2)c1 [IACS-010759],sensitivity to IACS-010759 as assessed by apoptosis,"[1]; Myla, HH, Hu78, particularly for Myla, 8 nM, 5 days, Annexin V+PI+",low nanomolar sensitivity
same,anti-tumor activity in vitro (OXPHOS inhibitor),[1]; [5],potent anti-tumor activity
same,effect of OXPHOS inhibition on tumor cells,[2],inhibition of tumor cell proliferation and induction of apoptosis
CC(=O)c1c(C)c2cnc(Nc3ccc(N4CCNCC4)cn3)nc2n(C2CCCC2)c1=O [Palbociclib],target cells remaining viable after treatment,malignant T cells; [4],50%
Cn1nc(C(F)(F)F)cc1-c1ccc(OCc2ccc(Cl)cc2)c(-c2ccc(Cl)c(C(F)(F)F)c2)c1O [MYCi975],"sensitivity to MYCi975 as assessed by cell proliferation, cell viability and cytotoxicity (MTS assay)",[3],low micromolar sensitivity
same,anti-tumor activity in vitro (MYC inhibitor),[3]; [5],potent anti-tumor activity
same,preclinical in-vivo activity against MYC,MYC,potent preclinical in-vivo activity against MYC
Cc1cnc(CNC(=O)c2c(=O)c3ccc(N4CCCN(C)CC4)nc3n3c2sc2ccccc23)cn1 [CX5461],target cells remaining viable after treatment,malignant T cells; [4],60-70%
"mogamulizumab: anti-CCR4, FDA approved breakthrough therapy for CTCL (antibody, chains of the INN, looked up, V domains shown) VH: EVQLVESGGDLVQPGRSLRLSCAASGFIFSNYGMSWVRQAPGKGLEWVATISSASTYSYYPDSVKGRFTISRDNAKNSLYLQMNSLRVEDTALYYCGRHSDGNFAFGYWGQGTLVTVSS VL: DVLMTQSPLSLPVTPGEPASISCRSSRNIVHINGDTYLEWYLQKPGQSPQLLIYKVSNRFSGVPDRFSGSGSGTDFTLKISRVEAEDVGVYYCFQGSLLPWTFGQGTKVEIK","responses in blood, % of patients",CTCL; blood compartment,49.2%
same,"responses in skin, % of patients",CTCL; skin compartment,27.4%
same,ORR,"CTCL; mogamulizumab monotherapy, at ≥4 months (b5), at 4 months",25.3%
same,median PFS,CTCL; mogamulizumab monotherapy,7.8 months
